Results on 37 molecules are retold here after patent publication US10266549B2, “ULK1 inhibitors and methods using same” (SALK INSTITUTE FOR BIOLOGICAL STUDIES, priority 2014, dated 2019).

The target of the test is ULK1 (Homo sapiens (Human), UniProt O75385). Kind of test: ULK1 inhibition assay (Table 1). The class given is biochemical. The note with it: * = tested as a mixture of regioisomers.
Chain of ULK1 (O75385 whole entry, species assumed): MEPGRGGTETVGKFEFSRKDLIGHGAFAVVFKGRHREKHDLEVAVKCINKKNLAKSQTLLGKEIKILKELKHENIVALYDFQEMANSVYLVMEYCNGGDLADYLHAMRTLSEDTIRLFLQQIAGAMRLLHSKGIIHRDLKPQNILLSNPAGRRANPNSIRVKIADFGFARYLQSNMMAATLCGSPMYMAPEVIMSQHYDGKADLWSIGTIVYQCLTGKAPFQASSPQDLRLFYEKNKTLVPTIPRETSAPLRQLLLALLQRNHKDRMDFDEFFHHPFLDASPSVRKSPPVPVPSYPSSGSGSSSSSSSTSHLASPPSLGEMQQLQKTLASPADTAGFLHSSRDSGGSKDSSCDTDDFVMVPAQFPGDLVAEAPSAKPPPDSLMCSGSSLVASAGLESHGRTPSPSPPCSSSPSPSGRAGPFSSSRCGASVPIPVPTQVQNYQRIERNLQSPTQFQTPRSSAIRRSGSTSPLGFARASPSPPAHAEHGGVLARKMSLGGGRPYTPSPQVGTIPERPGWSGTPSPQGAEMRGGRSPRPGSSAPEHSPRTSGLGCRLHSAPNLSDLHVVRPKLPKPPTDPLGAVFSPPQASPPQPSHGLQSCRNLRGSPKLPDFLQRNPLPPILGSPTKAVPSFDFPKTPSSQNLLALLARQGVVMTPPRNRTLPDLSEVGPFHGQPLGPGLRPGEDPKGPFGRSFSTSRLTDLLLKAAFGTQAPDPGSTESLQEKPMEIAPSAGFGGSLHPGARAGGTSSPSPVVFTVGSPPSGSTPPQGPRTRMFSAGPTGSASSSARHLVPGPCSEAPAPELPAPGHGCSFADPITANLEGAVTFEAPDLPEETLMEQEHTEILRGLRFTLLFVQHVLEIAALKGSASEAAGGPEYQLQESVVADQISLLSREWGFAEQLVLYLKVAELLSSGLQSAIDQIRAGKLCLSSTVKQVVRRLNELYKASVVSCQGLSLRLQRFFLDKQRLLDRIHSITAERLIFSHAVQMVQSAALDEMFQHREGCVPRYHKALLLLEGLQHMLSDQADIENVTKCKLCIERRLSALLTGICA

In the case of `CNC(=O)c1ccccc1Oc1nc(Nc2cc(OC)ccc2C)ncc1C(F)(F)F` [compound 101, 2-((2-((5-methoxy-2-methylphenyl)amino)-5-(trifluoromethyl)pyrimidin-4-yl)oxy)-N-methylbenzamide], the IC50 was above 2000 nM.

On to `CNC(=O)c1ccccc1Oc1nc(Nc2ccc(C)c(Br)c2)ncc1C(F)(F)F` [compound 102, 2-((2-((3-bromo-4-methylphenyl)amino)-5-(trifluoromethyl)pyrimidin-4-yl)oxy)-N-methylbenzamide], for which the IC50 is above 2000 nM. For `CNC(=O)c1ccccc1Oc1nc(Nc2ccccc2OC)ncc1C(F)(F)F` [compound 103, 2-((2-((2-methoxyphenyl)amino)-5-(trifluoromethyl)pyrimidin-4-yl)oxy)-N-methylbenzamide], the IC50 is above 2000 nM.

For `CNC(=O)c1ccccc1Oc1nc(Nc2cc(C)ccc2C)ncc1C(F)(F)F` [compound 104, 2-((2-((2,5-dimethylphenyl)amino)-5-(trifluoromethyl)pyrimidin-4-yl)oxy)-N-methylbenzamide], the IC50 is above 2000 nM. Consider `CNC(=O)c1ccccc1Oc1nc(Nc2ccc(C)c(C)c2)ncc1C(F)(F)F` [compound 106, 2-((2-((3,4-dimethylphenyl)amino)-5-(trifluoromethyl)pyrimidin-4-yl)oxy)-N-methylbenzamide], for which the IC50 was in the range of 200 to 2000 nM.

Turning to `CNC(=O)c1ccccc1Oc1nc(Nc2ccc(C)cc2Cl)ncc1C(F)(F)F` [compound 107, 2-((2-((2-chloro-4-methylphenyl)amino)-5-(trifluoromethyl)pyrimidin-4-yl)oxy)-N-methylbenzamide], the IC50 is above 2000 nM. With `CNC(=O)c1ccccc1Oc1nc(Nc2ccc3c(c2)CCC(=O)N3)ncc1C(F)(F)F` [compound 110, N-methyl-2-((2-((2-oxo-1,2,3,4-tetrahydroquinolin-6-yl)amino)-5-(trifluoromethyl)pyrimidin-4-yl)oxy)benzamide], the IC50 was in the range of 200 to 2000 nM. In the case of `CNC(=O)c1ccccc1Oc1nc(Nc2ccccc2)ncc1Br` [compound 111, 2-((5-bromo-2-(phenylamino)pyrimidin-4-yl)oxy)-N-methyl benzamide] it was above 2000 nM; in that of `CNC(=O)c1ccccc1Oc1nc(Nc2cc(Br)ccc2C)ncc1Br` [compound 112, 2-((5-bromo-2-((5-bromo-2-methylphenyl)amino)pyrimidin-4-yl)oxy)-N-methylbenzamide], above 2000 nM; in that of `CNC(=O)c1ccccc1Oc1nc(Nc2cccc(F)c2F)ncc1C(F)(F)F` [compound 113, 2-((2-((2,3-difluorophenyl)amino)-5-(trifluoromethyl)pyrimidin-4-yl)oxy)-N-methylbenzamide], above 2000 nM. In the case of `Clc1cnc(Nc2ccccc2)nc1Nc1ccccc1` [compound 114, 5-chloro-N^2,N^4-diphenylpyrimidine-2,4-diamine] it was above 2000 nM. In the case of `CNC(=O)c1ccccc1Sc1nc(Nc2cc(OC)ccc2C)ncc1C(F)(F)F` [compound 117, 2-((2-((5-methoxy-2-methylphenyl)amino)-5-(trifluoromethyl)pyrimidin-4-yl)thio)-N-methylbenzamide] it was above 2000 nM. On to `COc1cccc(Nc2nc(Nc3ccc4c(c3)CCC(=O)N4)ncc2C(F)(F)F)c1` [compound 119, 6-((4-((3-methoxyphenyl)amino)-5-(trifluoromethyl)pyrimidin-2-yl)amino)-3,4-dihydroquinolin-2(1H)-one], for which the IC50 was below 200 nM. In the case of `O=C1CCc2cc(Nc3ncc(C(F)(F)F)c(Nc4cccc(OCc5ccccc5)c4)n3)ccc2N1` [compound 121, 6-((4-((3-(benzyloxy)phenyl)amino)-5-(trifluoromethyl)pyrimidin-2-yl)amino)-3,4-dihydroquinolin-2(1H)-one] it was 200 to 2000 nM; in that of `CNC(=O)c1cccc(Oc2nc(Nc3ccc4c(c3)CCC(=O)N4)ncc2C(F)(F)F)c1` [compound 122, N-methyl-3-((2-((2-oxo-1,2,3,4-tetrahydroquinolin-6-yl)amino)-5-(trifluoromethyl)pyrimidin-4-yl)oxy)benzamide], 200 to 2000 nM.

`Cc1ccc(Nc2nc(Nc3ccc4c(c3)CCC(=O)N4)ncc2C(F)(F)F)cc1C` [compound 125, 6-((4-((3,4-dimethylphenyl)amino)-5-(trifluoromethyl)pyrimidin-2-yl)amino)-3,4-dihydroquinolin-2(1H)-one]: the IC50 was below 200 nM. With `CNC(=O)c1cccc(Nc2nc(Nc3ccc4c(c3)CCC(=O)N4)ncc2C(F)(F)F)c1` [compound 128, N-methyl-3-((2-((2-oxo-1,2,3,4-tetrahydroquinolin-6-yl)amino)-5-(trifluoromethyl)pyrimidin-4-yl)amino)benzamide] the figure was below 200 nM; with `O=C1CCc2cc(Nc3ncc(C(F)(F)F)c(Nc4ccc5c(c4)CCC5)n3)ccc2N1` [compound 129, 6-((4-((2,3-dihydro-1H-inden-5-yl)amino)-5-(trifluoromethyl)pyrimidin-2-yl)amino)-3,4-dihydroquinolin-2(1H)-one], below 200 nM; with `CC(=O)Nc1ccc(Nc2nc(Nc3ccc4c(c3)CCC(=O)N4)ncc2C(F)(F)F)cc1` [compound 132, N-(4-((2-((2-oxo-1,2,3,4-tetrahydroquinolin-6-yl)amino)-5-(trifluoromethyl)pyrimidin-4-yl)amino)phenyl)acetamide], below 200 nM. In the case of `COc1cccc(Nc2nc(Nc3ccc4c(c3)OCCO4)ncc2C(F)(F)F)c1` [compound 133, N^2-(2,3-dihydrobenzo[b][1,4]dioxin-6-yl)-N^4-(3-methoxyphenyl)-5-(trifluoromethyl)pyrimidine-2,4-diamine] it was below 200 nM.

Take `O=C1CCc2cc(Nc3ncc(Cl)c(Nc4ccc5c(c4)CCC(=O)N5)n3)ccc2N1` [compound 134, 6,6′-((5-chloropyrimidine-2,4-diyl)bis(azanediyl))bis(3,4-dihydroquinolin-2(1H)-one)]: the IC50 was below 200 nM. With `COc1cnc(Nc2ccc3c(c2)CCC(=O)N3)nc1Nc1ccc2c(c1)CCC(=O)N2` [compound 135, 6,6′-((5-methoxypyrimidine-2,4-diyl)bis(azanediyl))bis(3,4-dihydroquinolin-2(1H)-one)] the figure was above 2000 nM; with `COc1cccc(Nc2nc(Nc3ccc4c(c3)CCC(=O)N4)ncc2Br)c1` [compound 142, 6-((5-bromo-4-((3-methoxyphenyl)amino)pyrimidin-2-yl)amino)-3,4-dihydroquinolin-2(1H)-one], below 200 nM; with `CS(=O)(=O)c1cccc(CNc2nc(Nc3ccc4[nH]ccc4c3)ncc2Br)c1` [compound 153, 5-bromo-N^2-(1H-indol-5-yl)-N^4-(3-(methylsulfonyl)benzyl) pyrimidine-2,4-diamine], above 2000 nM. With `Brc1cnc(Nc2ccc3[nH]ccc3c2)nc1Nc1ccccn1` [compound 154, 5-bromo-N^2-(1H-indol-5-yl)-N^4-(pyridin-2-yl)pyrimidine-2,4-diamine] the figure was below 200 nM; with `O=C1CCc2cc(Nc3ncc(Br)c(Nc4ccccn4)n3)ccc2N1` [compound 155, 6-((5-bromo-4-(pyridin-2-ylamino)pyrimidin-2-yl)amino)-3,4-dihydroquinolin-2(1H)-one], below 200 nM; with `COc1ccc(Nc2nc(Nc3ccc4c(c3)CCC(=O)N4)ncc2Br)cn1` [compound 156, 6-((5-bromo-4-((6-methoxypyridin-3-yl)amino)pyrimidin-2-yl)amino)-3,4-dihydroquinolin-2(1H)-one], below 200 nM. In the case of `O=C1CCc2cc(Nc3ncc(Br)c(NC4CC4)n3)ccc2N1` [compound 159, 6-((5-bromo-4-(cyclopropylamino)pyrimidin-2-yl)amino)-3,4-dihydroquinolin-2(1H)-one] it was below 200 nM; in that of `FC(F)(F)c1cnc(NC2CC2)nc1NC1CC1` [compound 169, N^2,N^4-dicyclopropyl-5-(trifluoromethyl)pyrimidine-2,4-diamine], above 2000 nM.

For the molecule `CNC(=O)c1ccccc1Oc1nc(Nc2cc(OC)ccc2C)ncc1Br` [compound 170, 2-((5-bromo-2-((5-methoxy-2-methylphenyl)amino)pyrimidin-4-yl)oxy)-N-methylbenzamide], the IC50 is above 2000 nM. In the case of `COc1nc(Nc2cccc(C(F)(F)F)c2F)ncc1Br` [compound 172, 5-bromo-N-(2-fluoro-3-(trifluoromethyl)phenyl)-4-methoxy pyrimidin-2-amine] it was 200 to 2000 nM; in that of `CCCCOc1nc(Nc2cc(OC)c(OC)c(OC)c2)ncc1Br` [compound 173, 5-bromo-4-butoxy-N-(3,4,5-trimethoxyphenyl)pyrimidin-2-amine], below 200 nM. With `Brc1cnc(Nc2cnc3[nH]ccc3c2)nc1NC1CC1` [compound 174, 5-bromo-N4-cyclopropyl-N2-(1H-pyrrolo[2,3-b]pyridin-5-yl)pyrimidine-2,4-diamine] the figure was below 200 nM; with `O=C1CCc2cc(Nc3ncc(C(F)(F)F)c(OC4CCC4)n3)ccc2N1` [compound 175, 6-((4-cyclobutoxy-5-(trifluoromethyl)pyrimidin-2-yl)amino)-3,4-dihydroquinolin-2(1H)-one], below 200 nM. Take `FC(F)(F)c1cnc(Nc2cnc3[nH]ccc3c2)nc1Nc1ccc2c(c1)OCO2` [compound 177, N4-(benzo[d][1,3]dioxol-5-yl)-N2-(1H-pyrrolo[2,3-b]pyridin-5-yl)-5-(trifluoromethyl)pyrimidine-2,4-diamine]: the IC50 is below 200 nM.

Turning to `COCCNc1nc(Nc2cnc3[nH]ccc3c2)ncc1C(F)(F)F` [compound 179, N4-(2-methoxyethyl)-N2-(1H-pyrrolo[2,3-b]pyridin-5-yl)-5-(trifluoromethyl)pyrimidine-2,4-diamine], the IC50 is 200 to 2000 nM.

As to “N2-(2-methoxy-5-methylphenyl)-N4-(3-(methylsulfonyl) benzyl)-5-(trifluoromethyl)pyrimidine-2,4-diamine [compound 50]”, the IC50 was above 2000 nM.
